Assay results published in patent US10227323B2, “Glucosylceramide synthase inhibitors for the treatment of diseases” (BIOMARIN PHARMACEUTICAL INC., priority 2013, dated 2019).

target: T1, GCS (Canis lupus familiaris, UniProt A0A8I3MXG6); assay: Assay 1: GCS Enzymatic Assay (MDCK cell lysate, C6-NBD-Ceramide, LC/MS); assay type: biochemical, canine; conditions: Table 2; data marked by *
T1 sequence (A0A8I3MXG6 1-394): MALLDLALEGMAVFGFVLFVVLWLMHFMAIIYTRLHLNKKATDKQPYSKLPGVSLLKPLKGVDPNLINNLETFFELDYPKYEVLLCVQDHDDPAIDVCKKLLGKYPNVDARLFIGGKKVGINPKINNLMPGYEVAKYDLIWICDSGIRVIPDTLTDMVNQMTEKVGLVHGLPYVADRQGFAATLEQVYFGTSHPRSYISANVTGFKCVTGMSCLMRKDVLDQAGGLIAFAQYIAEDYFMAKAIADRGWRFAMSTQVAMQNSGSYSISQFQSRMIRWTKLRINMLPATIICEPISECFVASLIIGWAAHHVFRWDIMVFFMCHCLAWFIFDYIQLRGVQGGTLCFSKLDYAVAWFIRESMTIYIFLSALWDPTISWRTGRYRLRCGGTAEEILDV
Outline: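 LC/MS/MS measurement of glucosylceramide and NBD-ceramide after a 1 h, 37 °C reaction with 100 μM UDP-glucose and 10 μM C6-NBD-ceramide gave IC50s or percent inhibition.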

SMILES	% inhibition generated from Assay 1
CC(C)Oc1cc([C@@H](O)[C@@H](CN2CCCC2)NC(=O)C(F)(F)CCc2ccc3cc(F)ccc3c2)ccn1 [Compound 114, 2,2-difluoro-4-(6-fluoronaphthalen-2-yl)-N-((1R,2R)-1-hydroxy-1-(2-isopropoxypyridin-4-yl)-3-(pyrrolidin-1-yl)propan-2-yl)butanamide]	A* (the compound had a % inhibition of a percent inhibition of greater than or equal to about 50%)
CC1(C)CCc2cc([C@@H](O)[C@@H](CN3CCCC3)NC(=O)C(F)(F)c3cc4cc(Cl)ccc4o3)ccc2O1 [Compound 119, 2-(5-chlorobenzofuran-2-yl)-N-((1R,2R)-1-(2,2-dimethylchroman-6-yl)-1-hydroxy-3-(pyrrolidin-1-yl)propan-2-yl)-2,2-difluoroacetamide]	A* (the compound had a % inhibition of a percent inhibition of greater than or equal to about 50%)
O=C(N[C@H](CN1CCCC1)[C@H](O)c1ccc(OC2CC2)nc1)C(F)(F)CCc1ccc2ccccc2c1 [Compound 120, N-((1R,2R)-1-(6-cyclopropoxypyridin-3-yl)-1-hydroxy-3-(pyrrolidin-1-yl)propan-2-yl)-2,2-difluoro-4-(naphthalen-2-yl)butanamide]	A* (the compound had a % inhibition of a percent inhibition of greater than or equal to about 50%)
CN1CCC(Oc2ccc([C@@H](O)[C@@H](CN3CCCC3)NC(=O)C(F)(F)CCc3ccc4ccccc4c3)cc2Cl)CC1 [Compound 121, N-((1R,2R)-1-(3-chloro-4-((l-methylpiperidin-4-yl)oxy)phenyl)-1-hydroxy-3-(pyrrolidin-1-yl)propan-2-yl)-2,2-difluoro-4-(naphthalen-2-yl)butanamide]	B* (the compound had a % inhibition of greater than or equal to about 3% but less than about 50%)
O=C(N[C@H](CN1CCC1)[C@H](O)c1ccc(OC2CC2)c(Cl)c1)C(=O)c1cc2cc(Cl)ccc2o1 [Compound 122, N-((1R,2R)-3-(azetidin-1-yl)-1-(3-chloro-4-cyclopropoxyphenyl)-1-hydroxypropan-2-yl)-2-(5-chlorobenzofuran-2-yl)-2-oxoacetamide]	A* (the compound had a % inhibition of a percent inhibition of greater than or equal to about 50%)
CN1CCC(Oc2ccc([C@@H](O)[C@@H](CN3CCCC3)NC(=O)C(F)(F)c3cc4cc(Cl)ccc4o3)cc2Cl)CC1 [Compound 123, N-((1R,2R)-1-(3-chloro-4-((l-methylpiperidin-4-yl)oxy)phenyl)-1-hydroxy-3-(pyrrolidin-1-yl)propan-2-yl)-2-(5-chlorobenzofuran-2-yl)-2,2-difluoroacetamide]	A* (the compound had a % inhibition of a percent inhibition of greater than or equal to about 50%)
O=C(N[C@H](CN1CCCC1)[C@H](O)c1ccc(OCCN2CCC2)c(Cl)c1)C(F)(F)CCc1ccc2ccccc2c1 [Compound 131, N-((1R,2R)-1-(4-(2-(azetidin-1-yl)ethoxy)-3-chlorophenyl)-1-hydroxy-3-(pyrrolidin-1-yl)propan-2-yl)-2,2-difluoro-4-(naphthalen-2-yl)butanamide]	A* (the compound had a % inhibition of a percent inhibition of greater than or equal to about 50%)

same assay, conditions: Table 2; data without asterisk; read-out: IC50 (nM) generated from Assay 1

SMILES	IC50 [nM]
O=C(N[C@H](CN1CCCC1)[C@H](O)c1ccc(OCC(F)(F)F)nc1)C(F)(F)CCc1ccc2ccccc2c1 [Compound 108, 2,2-difluoro-N-((1R,2R)-1-hydroxy-3-(pyrrolidin-1-yl)-1-(6-(2,2,2-trifluoroethoxy)pyridin-3-yl)propan-2-yl)-4-(naphthalen-2-yl)butanamide]	50 to 5000
O=C(N[C@H](CN1CCCC1)[C@H](O)c1cc(F)c2c(c1)OCCO2)C(F)(F)CCc1ccc2ccccc2c1 [Compound 109, 2,2-difluoro-N-((1R,2R)-1-(8-fluoro-2,3-dihydrobenzo[b][1,4]dioxin-6-yl)-1-hydroxy-3-(pyrrolidin-1-yl)propan-2-yl)-4-(naphthalen-2-yl)butanamide]	< 50
O=C(N[C@H](CN1CCCC1)[C@H](O)c1ccc(OC2CCOCC2)c(Cl)c1)C(F)(F)CCc1ccc2ccccc2c1 [Compound 110, N-((1R,2R)-1-(3-chloro-4-((tetrahydro-2H-pyran-4-yl)oxy)phenyl)-1-hydroxy-3-(pyrrolidin-1-yl)propan-2-yl)-2,2-difluoro-4-(naphthalen-2-yl)butanamide]	< 50
O=C(CCc1ccc2cc(F)ccc2c1)C(=O)N[C@H](CN1CCCC1)[C@H](O)c1cc(F)c2c(c1)OCCO2 [Compound 111, N-((1R,2R)-1-(8-fluoro-2,3-dihydrobenzo[b][1,4]dioxin-6-yl)-1-hydroxy-3-(pyrrolidin-1-yl)propan-2-yl)-4-(6-fluoronaphthalen-2-yl)-2-oxobutanamide]	< 50
O=C(N[C@H](CN1CCCC1)[C@H](O)c1ccc(OC2CC2)c(Cl)c1)/C(CCc1ccc2cc(F)ccc2c1)=N/O [Compound 112, (E)-N-((1R,2R)-1-(3-chloro-4-cyclopropoxyphenyl)-1-hydroxy-3-(pyrrolidin-1-yl)propan-2-yl)-4-(6-fluoronaphthalen-2-yl)-2-(hydroxyimino)butanamide]	< 50
O=C(N[C@H](CN1CCCC1)[C@H](O)c1cc(F)c2c(c1)OCCO2)/C(CCc1ccc2cc(F)ccc2c1)=N/O [Compound 115, (E)-N-((1R,2R)-1-(8-fluoro-2,3-dihydrobenzo[b][1,4]dioxin-6-yl)-1-hydroxy-3-(pyrrolidin-1-yl)propan-2-yl)-4-(6-fluoronaphthalen-2-yl)-2-(hydroxyimino)butanamide]	< 50
O=C(N[C@H](CN1CCCC1)[C@H](O)c1ccc(OC2CCOCC2)c(Cl)c1)C(F)(F)C1Cc2ccc(Cl)cc2C1 (stereo partly drawn) [Compound 116, 2-(5-chloro-2,3-dihydro-1H-inden-2-yl)-N-((1R,2R)-1-(3-chloro-4-((tetrahydro-2H-pyran-4-yl)oxy)phenyl)-1-hydroxy-3-(pyrrolidin-1-yl)propan-2-yl)-2,2-difluoroacetamide]	< 50
O=C(N[C@H](CN1CCC1)[C@H](O)c1cc(F)c2c(c1)OCCO2)/C(CCc1ccc2cc(F)ccc2c1)=N/O [Compound 118, (E)-N-((1R,2R)-3-(azetidin-1-yl)-1-(8-fluoro-2,3-dihydrobenzo[b][1,4]dioxin-6-yl)-1-hydroxypropan-2-yl)-4-(6-fluoronaphthalen-2-yl)-2-(hydroxyimino)butanamide]	50 to 5000
O=C(N[C@H](CN1CCCC1)[C@H](O)c1ccc(OC2CC2)c(F)c1)C(F)(F)CCc1ccc2ccccc2c1 [Compound 125, N-((1R,2R)-1-(4-cyclopropoxy-3-fluorophenyl)-1-hydroxy-3-(pyrrolidin-1-yl)propan-2-yl)-2,2-difluoro-4-(naphthalen-2-yl)butanamide]	< 50
O=C(N[C@H](CN1CCCC1)[C@H](O)c1ccc(OC2CC2)c(F)c1)C(F)(F)c1cc2cc(Cl)ccc2o1 [Compound 126, 2-(5-chlorobenzofuran-2-yl)-N-((1R,2R)-1-(4-cyclopropoxy-3-fluorophenyl)-1-hydroxy-3-(pyrrolidin-1-yl)propan-2-yl)-2,2-difluoroacetamide]	< 50
O=C(N[C@H](CN1CCCC1)[C@H](O)c1ccc(N2CCOCC2)c(Cl)c1)C(F)(F)c1cc2cc(Cl)ccc2o1 [Compound 127, N-((1R,2R)-1-(3-chloro-4-morpholinophenyl)-1-hydroxy-3-(pyrrolidin-1-yl)propan-2-yl)-2-(5-chlorobenzofuran-2-yl)-2,2-difluoroacetamide]	50 to 5000
O=C(N[C@H](CN1CCCC1)[C@H](O)c1ccc(OCCN2CCC2)c(Cl)c1)C(F)(F)c1cc2cc(Cl)ccc2o1 [Compound 128, N-((1R,2R)-1-(4-(2-(azetidin-1-yl)ethoxy)-3-chlorophenyl)-1-hydroxy-3-(pyrrolidin-1-yl)propan-2-yl)-2-(5-chlorobenzofuran-2-yl)-2,2-difluoroacetamide]	< 50
O=C(N[C@H](CN1CCCC1)[C@H](O)c1ccc(OC2COC2)c(Cl)c1)C(F)(F)CCc1ccc2ccccc2c1 [Compound 129, N-((1R,2R)-1-(3-chloro-4-(oxetan-3-yloxy)phenyl)-1-hydroxy-3-(pyrrolidin-1-yl)propan-2-yl)-2,2-difluoro-4-(naphthalen-2-yl)butanamide]	< 50
O=C(N[C@H](CN1CCCC1)[C@H](O)c1ccc(OC2COC2)c(Cl)c1)C(F)(F)c1cc2cc(Cl)ccc2o1 [Compound 130, N-((1R,2R)-1-(3-chloro-4-(oxetan-3-yloxy)phenyl)-1-hydroxy-3-(pyrrolidin-1-yl)propan-2-yl)-2-(5-chlorobenzofuran-2-yl)-2,2-difluoroacetamide]	< 50
O=C(N[C@H](CN1CCCC1)[C@H](O)c1ccc2c(c1)OCCO2)C(F)(F)c1ccc2cc(Cl)ccc2c1 [Compound 132, 2-(6-chloronaphthalen-2-yl)-N-((1R,2R)-1-(2,3-dihydrobenzo[b][1,4]dioxin-6-yl)-1-hydroxy-3-(pyrrolidin-1-yl)propan-2-yl)-2,2-difluoroacetamide]	< 50
O=C(N[C@H](CN1CCCC1)[C@H](O)c1cc(F)c2c(c1)OCCO2)C(=O)c1ccc(-c2ccc(F)cc2)cc1 [Compound 133, N-((1R,2R)-1-(8-fluoro-2,3-dihydrobenzo[b][1,4]dioxin-6-yl)-1-hydroxy-3-(pyrrolidin-1-yl)propan-2-yl)-2-(4′-fluoro-[1,1′-biphenyl]-4-yl)-2-oxoacetamide]	< 50
